Counter-ions that a name gives are not always drawn.
Legend:
[1] = oral, monotherapy; rapid peripheral metabolism by dopa decarboxylase and COMT; cited from earlier work
[2] = test system: effectiveness of L-dopa and dopaminergic ergot derivatives in PD; details: therapy of PD, combination with L-dopa and lisuride; cited from earlier work
[3] = test system: anti-parkinson action of bromocriptine; details: patients with PD, concomitant caffeine and bromocriptine; cited from earlier work
Parkinson's symptoms = assay: Administration of a PDE5 inhibitor compound to a patient suffering from Parkinson's Disease; type: in vivo, human; details: one patient with PD administered the PDE5 inhibitor
Text: The PDE5 inhibitor was 5-(2-ethoxy-5-(4-methyl-1-piperazinylsulphonyl)phenyl)-1-methyl-3-n-propyl-1,6-dihydro-7H-pyrazolo[4,3-d]pyrimidin-7-one, otherwise known as sildenafil citrate (Viagra®).

N[C@@H](Cc1ccc(O)c(O)c1)C(=O)O [L-dopa]
fraction of orally administered L-dopa that penetrates into brain [1]: Less than 1%

COc1ccc(C2CNC(=O)C2)cc1OC1CCCC1 (stereo not shown) [Rolipram, rolipram]
potentiation of the effect of L-dopa and lisuride [2]: failed to potentiate the effect of L-dopa and lisuride

Cn1c(=O)c2c(ncn2C)n(C)c1=O [caffeine]
potentiation of the anti-parkinson action of bromocriptine [3]: failed to potentiate the anti-parkinson action of bromocriptine

CCCc1nn(C)c2c(=O)[nH]c(-c3cc(S(=O)(=O)N4CCN(C)CC4)ccc3OCC)nc12 [sildenafil citrate, 5-(2-ethoxy-5-(4-methyl-1-piperazinylsulphonyl)phenyl)-1-methyl-3-n-propyl-1,6-dihydro-7H-pyrazolo[4,3-d]pyrimidin-7-one]
effect on Parkinson's symptoms noted by the patient (Parkinson's symptoms): an improvement in their Parkinson's symptoms

— patent US6492371B2, “Use of cyclic GMP-specific phosphodiesterase inhibitors for treatment of Parkinson's Disease” (priority 2000, dated 2002)
